Kd, IC50 and AC50 data for 6 compounds are collected here from US5747530A, “Aromatic dibenzofuran compounds and pharmaceutical/cosmetic compositions comprised thereof” (Centre International de Recherches Dermatologiques Galderma, priority 1994, dated 1998).

The target in experiment [1] is T1, RAR α (Homo sapiens, UniProt P10276).
T1 sequence (P10276 1-462): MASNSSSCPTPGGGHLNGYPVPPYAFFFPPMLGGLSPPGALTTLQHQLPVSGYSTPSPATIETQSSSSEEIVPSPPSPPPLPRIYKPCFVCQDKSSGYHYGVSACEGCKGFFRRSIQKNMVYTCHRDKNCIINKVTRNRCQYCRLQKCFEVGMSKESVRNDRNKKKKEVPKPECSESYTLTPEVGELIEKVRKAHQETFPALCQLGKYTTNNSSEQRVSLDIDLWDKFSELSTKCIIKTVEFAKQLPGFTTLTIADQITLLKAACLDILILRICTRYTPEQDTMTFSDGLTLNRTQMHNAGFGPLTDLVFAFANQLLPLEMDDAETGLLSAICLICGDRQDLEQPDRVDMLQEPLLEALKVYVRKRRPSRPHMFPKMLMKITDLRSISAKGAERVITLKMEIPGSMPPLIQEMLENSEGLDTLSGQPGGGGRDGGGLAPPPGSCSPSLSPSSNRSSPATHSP
The experiment is described as follows: Affinity for RAR α receptor (Kd). The format is binding. Particulars: read-out: Affinities for receptors Kd, RAR α. The protocol: (§1) Biological activities of certain compounds described and exemplified above:
(§2) ^(a) The affinites for the RARs were determined under the conditions
(§3) described in B. Martin et al, "Selective Synthetic Ligands for Human
(§4) Nuclear Retinoic Acid Receptors," Skin Pharmacol., 5, 57-65 (1992).

The target of experiment [2] is T2, RAR β (Homo sapiens, UniProt P10826).
T2 sequence (P10826 1-448 isoform P10826-2): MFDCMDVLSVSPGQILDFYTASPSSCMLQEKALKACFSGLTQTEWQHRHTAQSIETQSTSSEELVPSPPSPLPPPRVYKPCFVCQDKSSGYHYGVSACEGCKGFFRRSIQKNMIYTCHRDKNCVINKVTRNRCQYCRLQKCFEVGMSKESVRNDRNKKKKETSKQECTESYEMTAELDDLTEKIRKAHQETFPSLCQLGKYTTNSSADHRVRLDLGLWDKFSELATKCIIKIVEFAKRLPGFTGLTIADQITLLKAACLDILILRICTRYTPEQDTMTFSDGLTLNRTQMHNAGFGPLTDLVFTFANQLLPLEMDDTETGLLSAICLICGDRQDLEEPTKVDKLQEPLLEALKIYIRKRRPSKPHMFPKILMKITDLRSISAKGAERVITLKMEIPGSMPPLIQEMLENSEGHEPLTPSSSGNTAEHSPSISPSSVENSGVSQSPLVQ
The experiment is described as follows: Affinity for RAR β receptor (Kd). The experiment is classed as binding. Particulars: read-out: Affinities for receptors Kd, RAR β. The protocol:
as §1, §2, §3, §4

Experiment [3] concerns the target T3, RAR γ (Homo sapiens, UniProt P13631).
T3 sequence (P13631 1-454): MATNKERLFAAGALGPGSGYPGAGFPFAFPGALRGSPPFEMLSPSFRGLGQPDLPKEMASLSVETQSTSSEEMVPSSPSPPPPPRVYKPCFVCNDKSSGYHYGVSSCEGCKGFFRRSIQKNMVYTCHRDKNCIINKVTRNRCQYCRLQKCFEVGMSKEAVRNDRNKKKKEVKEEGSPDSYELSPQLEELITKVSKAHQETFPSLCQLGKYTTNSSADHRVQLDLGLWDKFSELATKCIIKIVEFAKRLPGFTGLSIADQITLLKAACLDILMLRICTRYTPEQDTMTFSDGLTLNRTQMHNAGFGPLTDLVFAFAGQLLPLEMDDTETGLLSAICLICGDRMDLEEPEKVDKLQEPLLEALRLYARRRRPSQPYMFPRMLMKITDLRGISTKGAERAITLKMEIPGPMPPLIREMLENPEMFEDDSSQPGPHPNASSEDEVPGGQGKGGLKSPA
The experiment can be described thus: Affinity for RAR γ receptor (Kd). The following applies: read-out: Affinities for receptors Kd, RAR γ. The experiment is classed as binding. As to the method: as §1, §2, §3, §4

Experiment [4] relates to F9 cells. The experiment can be described thus: Antagonist activity with respect to the differentiation of F9 cells. The experiment is classed as cell-based. Particulars: Mus musculus; coincubation with reference agonist (F9 AC50 = 4nM). The protocol:
Their activities may also be measured in tests of cellular transactivation using previously transfected recombinant RAR or RXR receptors (B. A. Bernard et al, Biochemical and Biophysical Research Communications, vol. 186, pp. 977-983 (1992)); M. F. Boehm et al, Journal of Medicinal Chemistry, p37, pp. 408-414 (1994)).
^(b) The antagonist activity was determined by coincubating a
[N(4-carboxybenzyl)-5,6,7,8-tetrahydro-5,5,8,8-tetramethyl-2-naphthylamin
(F9 AC50 = 4nM)] and different concentrations of the test retinoid.
These experiments were carried out under conditions for the determination
of activity with respect to the differentiation of F9 cells according to
the technique described in M. Darmon, M. Rocher, M. T. Cavey, B. Martin,
T. Rabilloud, C. Delescluse and B. Shroot, "Biological activity of
retinoids correlates with affinity for nuclear receptors, but not for
cytosolic binding protein," Skin Pharmacol., 1, 161-175 (1988).

Experiment [5] concerns F9 cells. The experiment can be described thus: Agonist activity, differentiation of F9 cells. The experiment is classed as cell-based. The following applies: Mus musculus, reference agonist.

With `CC12CCC(C1)C1(C)Oc3ccc(C(=O)/C=C/c4ccc(C(=O)O)cc4)cc3C21C` (single isomer, unassigned) [Example 23, 4-[(E)-3-(1,2,3,4-Tetrahydro-1,4a,9b-trimethyl-1,4-methanodibenzofuran-8-yl)-3-oxo-1-propenyl]benzoic acid], the Kd – broadly, the free concentration of one partner at which half of the binding sites on the other are occupied at equilibrium, for simple one-to-one binding – in experiment [1] was found to be 0.22 µM; in experiment [2], 0.053 µM; in experiment [3] it was 0.027 µM. Further, the IC50 (in general, the concentration at which inhibition is half-maximal) in experiment [4] is 0.019 µM.
With `CC12CCC(C1)C1(C)Oc3ccc(C(=O)COc4ccc(C(=O)O)cc4)cc3C21C` (stereo not drawn) [Example 12, 4-[2-(1,2,3,4-tetrahydro-1,4a,9b-trimethyl-1,4-methanodibenzofuran-8-yl)-2-oxoethoxy]benzoic acid], the Kd in experiment [1] was found to be 3.2 µM; in experiment [2], 0.745 µM; in experiment [3], 0.481 µM. In experiment [4], the IC50 came to 0.04 µM.
Take `CC12CCC(C1)C1(C)Oc3ccc(C(O)COc4ccc(C(=O)O)cc4)cc3C21C` (stereo not drawn) [Example 13, 4-[2-(1,2,3,4-tetrahydro-1,4a,9b-trimethyl-1,4-methanodibenzofuran-8-yl)-2-hydroxyethoxy]benzoic acid]: the Kd is more than 3.2 µM in experiment [1], 0.23 µM in experiment [2] and 0.04 µM in experiment [3]. In experiment [4], the IC50 turned out to be 0.036 µM.
The like results for `CC12CCC(C1)C1(C)Oc3ccc(C(=O)COc4ccc(C(=O)O)c(O)c4)cc3C21C` (stereo not drawn) [Example 15, 4-[2-(1,2,3,4-tetrahydro-1,4a,9b-trimethyl-1,4-methanodibenzofuran-8-yl)-2-oxoethoxy]-2-hydroxybenzoic acid] were, in that order, 2.5 µM, 0.114 µM, 0.15 µM and 0.055 µM.
The like results for `CC12CCC(C1)C1(C)Oc3ccc(CCOc4ccc(C(=O)O)c(O)c4)cc3C21C` (stereo not drawn) [Example 17, 4-[2-(1,2,3,4-tetrahydro-1,4a,9b-trimethyl-1,4-methanodibenzofuran-8-yl)ethoxy]-2-hydroxybenzoic acid] were, in that order, more than 10 µM, 0.315 µM, 2.25 µM and 0.27 µM.
As to `CC1(C)CCC(C)(C)c2cc(NCc3ccc(C(=O)O)cc3)ccc21` [N(4-carboxybenzyl)-5,6,7,8-tetrahydro-5,5,8,8-tetramethyl-2-naphthylamin], the AC50 (commonly the concentration giving half of the maximal activity seen) in experiment [5] stood at 0.004 µM. That is a single-digit nanomolar value.
